# Test results reported in PMC6467921, “Biosynthesis of DHGA12 and its roles in Arabidopsis seedling establishment” (Nature Communications, 2019).
# Assays:
# GAS2 = target: T1, GAS2 (Arabidopsis thaliana, UniProt F4INZ9); experiment: product of in vitro GAS2 reaction identified by LC-MS, compared with synthetic standard; assay type: biochemical
# T1 construct: gene GIM2; recombinant purified GAS2
# T1 sequence (F4INZ9 1-366): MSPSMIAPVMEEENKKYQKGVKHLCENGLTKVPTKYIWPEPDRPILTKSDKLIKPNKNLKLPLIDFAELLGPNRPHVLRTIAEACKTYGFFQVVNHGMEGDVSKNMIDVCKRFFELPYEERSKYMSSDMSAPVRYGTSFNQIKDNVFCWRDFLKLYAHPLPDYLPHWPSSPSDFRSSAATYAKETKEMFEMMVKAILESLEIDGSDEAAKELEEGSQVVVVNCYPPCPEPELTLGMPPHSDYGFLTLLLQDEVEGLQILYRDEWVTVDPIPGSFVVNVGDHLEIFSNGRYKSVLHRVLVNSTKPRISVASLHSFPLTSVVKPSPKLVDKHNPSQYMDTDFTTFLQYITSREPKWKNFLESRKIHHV
# GID1c = target: T2, GID1c (Arabidopsis thaliana, UniProt Q940G6); experiment: microscale thermophoresis (MST), NT-647-labeled GST-GID1c; assay type: binding
# T2 construct: glutathione S-transferase (GST)-tagged GID1c
# T2 sequence (Q940G6 2-344): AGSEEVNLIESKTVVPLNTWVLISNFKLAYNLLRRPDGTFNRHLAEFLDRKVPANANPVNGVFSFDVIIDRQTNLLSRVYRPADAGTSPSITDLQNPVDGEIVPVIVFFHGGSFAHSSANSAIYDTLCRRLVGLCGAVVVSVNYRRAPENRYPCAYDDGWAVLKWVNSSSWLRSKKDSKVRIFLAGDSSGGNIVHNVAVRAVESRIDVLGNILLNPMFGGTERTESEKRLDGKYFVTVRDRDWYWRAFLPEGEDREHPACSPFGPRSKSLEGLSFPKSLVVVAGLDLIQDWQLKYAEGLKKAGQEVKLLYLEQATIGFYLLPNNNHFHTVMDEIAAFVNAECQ
SMILES,"product of in vitro GAS2 reaction identified by LC-MS, compared with synthetic s (GAS2)",Kd (GID1c) [nM]
C[C@@]12CCC[C@@](C)(C(=O)O)[C@H]1[C@H](C(=O)O)[C@@]13C[C@@H](CC[C@@H]21)[C@](C)(O)C3 [DHGA12],Our data demonstrate that GAS2 exhibits hydration activity using GA12 as a substrate to produce DHGA12.,1450 ± 250
C=C1C[C@]23C[C@H]1CC[C@H]2[C@@]12CC[C@H](O)[C@@](C)(C(=O)O1)[C@H]2[C@@H]3C(=O)O [GA4],–,680 ± 120
